According to PMC8772704, “Quantification of Fosfomycin in Combination with Nine Antibiotics in Human Plasma and Cation-Adjusted Mueller-Hinton II Broth via LCMS” (Antibiotics, 2022):

Legend:
[1] = Plasma concentrations in four patients on fosfomycin-based combination therapy (pilot clinical feasibility study, LCMS/MS)
Protocol: For 20 µL of plasma/CAMHB sample, 20 µL of water and 20 µL of stable-isotope as internal standard (IS) were added and vortexed. 180 µL of acetonitrile was added for protein precipitation and subsequently removed by centrifugation (12,700 rpm for 10 min at 25 °C). Finally, 15 µL of the supernatant was diluted with 225 µL formic acid in water (0.1% v/v), and 10 µL was injected for LCMS/MS analysis. For the calibration curve and QCs, 20 µL of the corresponding antibiotic standard working solution was added instead of water.
Samples were analyzed using a Nexera X2 LCMS 8060 system (Shimadzu, Kyoto, Japan). […] Electrospray ionization employing positive and negative ion mode with multiple reaction monitoring was used for analyte quantification (Table S1). Data were acquired and analyzed using Shimadzu LabSolutions (Version 5.97).
The assay method described in this paper has been applied to a pilot clinical feasibility study to evaluate the proportion of patients with sub-optimal β-lactam levels and the need for dose adjustments in infected patients with unpredictable pharmacokinetics. We described a case series of four patients where they received in vitro guided antibiotic combination therapy using a fosfomycin-based combination regimen to treat a carbapenem-resistant Gram-negative bacteria infection. These four patients were recruited into the BLAST-2 study as the combination regimen contains a β-lactam antibiotic. In this case series, two were undergoing intermittent hemodialysis, and two patients had normal renal function. In the two patients on hemodialysis, they were on a dosing regimen of 8 g of fosfomycin on dialysis days (3 g at least 4 h before dialysis session and 5 g after completion of dialysis). The remaining two patients received 8 g of fosfomycin given every 8 h as a prolonged infusion.
Blood samples (2–3 mL from an indwelling catheter) were collected four times over a dosing interval of the β-lactam dosing regimen and centrifuged (10 min at 3000 rpm) (Eppendorf 5425R). The resultant plasma was stored (within 15 min of collection) at −80 °C until assay.

[2] = Long-term storage stability of antibiotics in combination with fosfomycin spiked in plasma/CAMHB (−30 °C, −80 °C); type: physicochemical; settings: for Mean accuracy (%), Table S17 / Mean accuracy (%), Table S16 / Mean accuracy (%), Table S18 / Mean accuracy (%), Table S15: CAMHB; for Mean accuracy (%), Table S17 / Mean accuracy (%), Table S16 / Mean accuracy (%), Table S18 / Mean accuracy (%), Table S11 / Mean accuracy (%), Table S13 / Mean accuracy (%), Table S12 / Mean accuracy (%), Table S14 / Mean accuracy (%), Table S15: combination with fosfomycin; for Mean accuracy (%), Table S17 / Mean accuracy (%), Table S13: 2 weeks at -80 °C; for Mean accuracy (%), Table S16 / Mean accuracy (%), Table S12: 4 weeks at -30 °C; for Mean accuracy (%), Table S18 / Mean accuracy (%), Table S14: 4 weeks at -80 °C; for Mean accuracy (%), Table S11 / Mean accuracy (%), Table S13 / Mean accuracy (%), Table S12 / Mean accuracy (%), Table S14: plasma; for Mean accuracy (%), Table S11 / Mean accuracy (%), Table S15: 2 weeks at -30 °C
Protocol: (§1) The stability of fosfomycin in combination with other antibiotics in plasma/CAMHB was evaluated under various operational conditions. Spiked plasma/CAMHB samples were evaluated at 7 h and 15 h in the autosampler at 4 °C. Long-term stability was evaluated up to 4 weeks of antibiotic-spiked plasma/CAMHB samples at LQC, MQC, and HQC concentrations stored at −30 °C and −80 °C.

[3] = 32-day stability of stock solutions stored at −80 °C; type: physicochemical; settings: stock solution stored at -80 °C; peak area Day 32 vs Day 1
Protocol: Stability of stock solutions
All stock solutions of antibiotics and their corresponding stable-isotope variants were measured prior to cold storage at -80 °C and tested at 32 days later.
Stability was determined by comparing the peak area of each drug between its Day 1 and Day 32 measurement. Acceptable criteria for stability was met if the […]

[4] = Autosampler stability at 4 °C of extracted antibiotic-spiked plasma/CAMHB samples; settings: for Mean accuracy (%), Table S8 / Mean accuracy (%), Table S10: CAMHB extracted samples; for Mean accuracy (%), Table S8 / Mean accuracy (%), Table S7: 7 h autosampler 4 °C; for Mean accuracy (%), Table S10 / Mean accuracy (%), Table S9: 15 h autosampler 4 °C; for Mean accuracy (%), Table S7 / Mean accuracy (%), Table S9: plasma extracted samples
Protocol: as §1

[5] = HQC: nominal mg/L CAZ 150, FEP 200, PIP 250, ATM 300, MEM 200, DOR 175, LVX 30, CEFT 250, TZB 87.5, TGC 20, AVI 30, FOF 1000
[6] = LQC: nominal 1 mg/L (levofloxacin, avibactam 0.5; fosfomycin 10)
[7] = MQC: nominal mg/L CAZ 75, FEP 100, PIP 150, ATM 150, MEM 100, DOR 87.5, LVX 15, CEFT 125, TZB 43.75, TGC 10, AVI 15, FOF 500

C[C@@H](O)[C@H]1C(=O)N2C(C(=O)O)=C(S[C@@H]3CN[C@H](C(=O)N(C)C)C3)[C@H](C)[C@H]12 [Meropenem, meropenem]
Mean total plasma concentration (range) ([1]; Patient 004, meropenem 2 g every 8 h as a 3-h infusion): 6.7 to 23.0 mg/L
Stability verdict (within ±15% of nominal) ([2]; CAMHB samples stored at −30 °C, 4 weeks): instability
Mean accuracy (%), Table S17 ([2]; HQC (nominal as E15)): 99.6%
Mean accuracy (%), Table S17 ([2]; LQC (nominal as E13)): 104.3%
Mean accuracy (%), Table S17 ([2]; MQC (nominal as E14)): 97.3%
Mean accuracy (%), Table S16 ([2]; HQC (nominal as E15)): 66.1%
Mean accuracy (%), Table S16 ([2]; LQC (nominal as E13)): 60.1%
Mean accuracy (%), Table S16 ([2]; MQC (nominal as E14)): 63.5%
Mean accuracy (%), Table S18 ([2]; HQC (nominal as E15)): 97.4%
Mean accuracy (%), Table S18 ([2]; LQC (nominal as E13)): 97.9%
Mean accuracy (%), Table S18 ([2]; MQC (nominal as E14)): 95.4%
Mean accuracy (%), Table S11 ([2]; HQC (nominal as E15)): 93.3%
Mean accuracy (%), Table S11 ([2]; LQC (nominal as E13)): 86.6%
Mean accuracy (%), Table S11 ([2]; MQC (nominal as E14)): 89.7%
Mean accuracy (%), Table S13 ([2]; HQC (nominal as E15)): 105.4%
Mean accuracy (%), Table S13 ([2]; LQC (nominal as E13)): 104.2%
Mean accuracy (%), Table S13 ([2]; MQC (nominal as E14)): 95.0%
Mean accuracy (%), Table S12 ([2]; HQC (nominal as E15)): 91.8%
Mean accuracy (%), Table S12 ([2]; LQC (nominal as E13)): 106.1%
Mean accuracy (%), Table S12 ([2]; MQC (nominal as E14)): 93.8%
Mean accuracy (%), Table S14 ([2]; HQC (nominal as E15)): 96.1%
Mean accuracy (%), Table S14 ([2]; LQC (nominal as E13)): 101.8%
Mean accuracy (%), Table S14 ([2]; MQC (nominal as E14)): 95.2%
32 Day Stability (%) [3]: 100.48%
Mean accuracy (%), Table S8 ([4]; HQC (nominal as E15)): 107.7%
Mean accuracy (%), Table S8 ([4]; LQC (nominal as E13)): 104.0%
Mean accuracy (%), Table S8 ([4]; MQC (nominal as E14)): 102.6%
Mean accuracy (%), Table S10 ([4]; HQC (nominal as E15)): 106.9%
Mean accuracy (%), Table S10 ([4]; LQC (nominal as E13)): 107.7%
Mean accuracy (%), Table S10 ([4]; MQC (nominal as E14)): 100.8%
Mean accuracy (%), Table S7 [4, 5]: 99.6%
Mean accuracy (%), Table S7 [4, 6]: 110.0%
Mean accuracy (%), Table S7 [4, 7]: 95.5%
Mean accuracy (%), Table S9 ([4]; HQC (nominal as E15)): 97.9%
Mean accuracy (%), Table S9 ([4]; LQC (nominal as E13)): 109.1%
Mean accuracy (%), Table S9 ([4]; MQC (nominal as E14)): 98.9%

C[C@]1(Cn2ccnn2)[C@H](C(=O)O)N2C(=O)C[C@H]2S1(=O)=O [Tazobactam, tazobactam]
Mean total plasma concentration (range) ([1]; Patient 001, piperacillin/tazobactam 4.5 g every 6 h as a 1-h infusion): 20.9 to 58.3 mg/L
Mean accuracy (%), Table S15 ([2]; HQC (nominal as E15)): 96.9%
Mean accuracy (%), Table S15 ([2]; LQC (nominal as E13)): 93.8%
Mean accuracy (%), Table S15 ([2]; MQC (nominal as E14)): 90.4%
Mean accuracy (%), Table S17 ([2]; HQC (nominal as E15)): 108.9%
Mean accuracy (%), Table S17 ([2]; LQC (nominal as E13)): 103.8%
Mean accuracy (%), Table S17 ([2]; MQC (nominal as E14)): 103.7%
Mean accuracy (%), Table S16 ([2]; HQC (nominal as E15)): 91.0%
Mean accuracy (%), Table S16 ([2]; LQC (nominal as E13)): 69.7%
Mean accuracy (%), Table S16 ([2]; MQC (nominal as E14)): 84.1%
Mean accuracy (%), Table S18 ([2]; HQC (nominal as E15)): 106.4%
Mean accuracy (%), Table S18 ([2]; LQC (nominal as E13)): 105.4%
Mean accuracy (%), Table S18 ([2]; MQC (nominal as E14)): 103.3%
Mean accuracy (%), Table S11 ([2]; HQC (nominal as E15)): 106.0%
Mean accuracy (%), Table S11 ([2]; LQC (nominal as E13)): 107.9%
Mean accuracy (%), Table S11 ([2]; MQC (nominal as E14)): 104.6%
Mean accuracy (%), Table S13 ([2]; HQC (nominal as E15)): 95.4%
Mean accuracy (%), Table S13 ([2]; LQC (nominal as E13)): 108.8%
Mean accuracy (%), Table S13 ([2]; MQC (nominal as E14)): 104.7%
Mean accuracy (%), Table S12 ([2]; HQC (nominal as E15)): 96.4%
Mean accuracy (%), Table S12 ([2]; LQC (nominal as E13)): 102.0%
Mean accuracy (%), Table S12 ([2]; MQC (nominal as E14)): 98.7%
Mean accuracy (%), Table S14 ([2]; HQC (nominal as E15)): 100.5%
Mean accuracy (%), Table S14 ([2]; LQC (nominal as E13)): 100.7%
Mean accuracy (%), Table S14 ([2]; MQC (nominal as E14)): 101.3%
32 Day Stability (%) [3]: 93.04%
Mean accuracy (%), Table S8 ([4]; HQC (nominal as E15)): 109.6%
Mean accuracy (%), Table S8 ([4]; LQC (nominal as E13)): 109.4%
Mean accuracy (%), Table S8 ([4]; MQC (nominal as E14)): 107.5%
Mean accuracy (%), Table S10 ([4]; HQC (nominal as E15)): 111.6%
Mean accuracy (%), Table S10 ([4]; LQC (nominal as E13)): 112.3%
Mean accuracy (%), Table S10 ([4]; MQC (nominal as E14)): 107.7%
Mean accuracy (%), Table S7 [4, 5]: 111.3%
Mean accuracy (%), Table S7 [4, 6]: 113.6%
Mean accuracy (%), Table S7 [4, 7]: 104.1%
Mean accuracy (%), Table S9 ([4]; HQC (nominal as E15)): 107.9%
Mean accuracy (%), Table S9 ([4]; LQC (nominal as E13)): 107.0%
Mean accuracy (%), Table S9 ([4]; MQC (nominal as E14)): 98.1%
